Where two headings read alike, the source gives them in different places.
Assays:
[1] = test system: phenylquinone-induced writhing in mice; test: Phenylquinone Writhing Test; format: in vivo, female white mice; details: Mus musculus, read-out: Phenylquinone Writhing (PQW) ED50
Method: Phenylquinone Writhing Test
A test compound suspended in 1% methylcellulose was given orally to fasted (17-21 hours) female white mice, 5-20 animals per double blind test. Aqueous (0.01% phenyl-p-benzoquinone) phenylquinone, 0.20 ml per mouse, was injected intraperitoneally 6 minutes before observations were begun.

[2] = test system: adjuvant-induced arthritis in rats; test: Established Adjuvant-Induced Arthritis in Rats; format: in vivo, Charles River Lewis male rats; details: for ED50: Rattus norvegicus, read-out: Adjuvant Arthritic ED50; for percent reduction in paw volume: at 9 mg/kg
[3] = effective analgesic dose for 50% of the mice, oral, 0.01% phenylquinone 0.20 ml i.p.
[4] = ED50% decrease from control paw volume (uninjected, left hind paw), oral, daily for 7 days, read one day after last dose
[5] = oral, daily for 7 days, read one day after last dose

Structure (SMILES) | ED50 ([1]; po) [mg/kg] | ED50 ([2]; po) [mg/kg] | ED50 [1, 3] [mg/kg] | ED50 [2, 4] [mg/kg] | percent reduction in paw volume [2, 5] [%]
CC(=O)Oc1ccccc1C(=O)O [Aspirin, reference compound] | 135 | 305 | – | – | –
COc1ccc(-c2cc(C(F)(F)F)n(C)c2-c2ccc(OC)cc2)cc1 [Example 1, 4,5-Bis(4-methoxyphenyl)-1-methyl-2-trifluoromethyl-1H-pyrrole] | – | – | 16 | 1.25 | –
COc1ccc(-c2cc(C(F)(F)C(F)(F)F)n(C)c2-c2ccc(OC)cc2)cc1 [Example 2, 4,5-bis(4-methoxyphenyl)-1-methyl-2-pentafluoroethyl-1H-pyrrole] | – | – | 1.8 | – | 32
CCn1c(C(F)(F)F)cc(-c2ccc(OC)cc2)c1-c1ccc(OC)cc1 [Example 3] | – | – | 47 | 18 | –
Cn1c(C(F)(F)F)cc(-c2ccc(Cl)cc2)c1-c1ccc(Cl)cc1 [Example 4] | – | – | – | – | 29
Cc1ccc(-c2cc(C(F)(F)F)n(C)c2-c2ccc(C)cc2)cc1 [Example 5] | – | – | 18 | – | 28
CSc1ccc(-c2c(-c3ccc(F)cc3)cc(C(F)(F)F)n2C)cc1 [Example 6, 4-(4-fluorophenyl)-1-methyl-5-(4-methylthiophenyl)-2-trifluoromethyl-1H-pyrrole] | – | – | 16 | 1.8 | –
Cn1c(C(F)(F)F)cc(-c2ccc(F)cc2)c1-c1ccc(S(C)(=O)=O)cc1 [Example 7, 4-(4-fluorophenyl)-1-methyl-5-(4-methylsulfonylphenyl)-2-trifluoromethyl-1H-pyrrole] | – | – | – | 3.5 | –
CSc1ccc(-c2cc(C(F)(F)F)n(C)c2-c2ccc(SC)cc2)cc1 [Example 8, 1-methyl-4,5-bis(4-methylthiophenyl)-2-trifluoromethyl-1H-pyrrole] | – | – | > 108 | 1.8 | –
CC(C)Cc1ccc(C(C)C(=O)O)cc1 (stereo not shown) [Ibuprofen, reference compound] | – | – | 10 | 100 | –
COc1ccc2c(c1)c(CC(=O)O)c(C)n2C(=O)c1ccc(Cl)cc1 [Indomethacin, reference compound] | 0.35 | 0.3 | – | – | –
CCCCC1C(=O)N(c2ccccc2)N(c2ccccc2)C1=O [Phenylbutazone, reference compound] | – | – | 80 | 10 | –
